Source: article PMC6053381, “Novel 2-phenyloxypyrimidine derivative induces apoptosis and autophagy via inhibiting PI3K pathway and activating MAPK/ERK signaling in hepatocellular carcinoma cells” (Scientific Reports, 2018)
pIC50: −log10 of the molar value.

How the values were obtained:
PDGFRα = PDGFRα (Homo sapiens, UniProt P16234); assay: PDGFR kinase assay, Caliper microfluidic mobility shift; format: biochemical; conditions: compound at 1 µM; averages of two separate experiments
Experimental: (§1) In vitro inhibitory activities of all compounds at 1 μM against PDGFRα and PDGFRβ were evaluated using Caliper microfluidic mobility shift technology. […] At the same concentration, only E5 inhibited greater than 50% of PDGFRβ activity (Fig. 2B).
(§2) PDGFR kinase activity was measured using Caliper microfluidic mobility shift technology. Briefly, 2 μL compound solution (25 μM) in 25% DMSO per well were added into the 384 well microtiter plates. Then, 10 μL per well of enzyme solution (100 mM HEPES, 10 mM MgCl2, Brij35 (30%) 100 μL, 1 mM DTT, 20 ng enzyme) was added. After a brief centrifugation at 1,000 rpm, the kinase reactions were started by addition of 38 μL per well of peptide/ATP-solution (40 μM ATP, 6.5 μM peptide 5′-FAM-KKKKEEIYFFF-NH2, Tris-HCl buffer, pH 7.0) incubated at 30 °C for 60 min and stopped by the addition of 20 μL 35 mM EDTA per well. The electrophoretic separation of the phosphorylated and non-phosphorylated peptides was then carried out on LabChip EZ Reader II (Caliper Life Sciences). All other kinase reactions were carried out as previously reported using the Kinase-Glo Plus or ADP-Glo assay. Kinase inhibition rates were calculated per manufacturer’s instructions.

PDGFRβ = PDGFRβ (Homo sapiens, UniProt P09619); assay: as above; format: biochemical; conditions: compound at 1 µM; averages of two separate experiments
Experimental: as §1, §2

BEL7404 = assay: CellTiter-Glo luminescent cell viability assay; format: cell-based; conditions: 120 h incubation, read-out: Anti-proliferative activity IC50 BEL7404
Text: (§3) The in vitro antitumor activity of all compounds was screened against six HCC cell lines by CellTiter-Glo luminescent cell viability assay as described earlier. […] After a comprehensive assessment of PDGFR inhibition, cellular activity against HCC cells as well as potential druggability, E5 was chosen to investigate its kinase profiling, antitumor activity and molecular mechanism in the following study. […]
(§4) authenticated by using short tandem repeat (STR) matching analysis. No mycoplasma contamination was detected.
(§5) CellTiter-Glo luminescent cell viability assay
(§6) For experiments hepatocellular carcinoma cells were seeded at 4000 cells per well in 96-well plates. After overnight incubation, solution of compounds in DMSO at various concentrations were added to the cells and further incubated for 120 h. Cell viability was measured with the CellTiter-Glo Luminescent Cell Viability Assay (Promega) according to the manufacturer’s instructions. Luminescence was measured using an EnVision Multilabel Plate Reader (Perkin-Elmer). The cytotoxicity of the compounds was expressed as the percent age of luminescence relative to that of untreated cells . The concentration of compound producing 50% of cell proliferation (IC50) was calculated by nonlinear regression analysis of the response-concentration (log) curve, using the Graph-Pad Prism program package (Graph Pad Software; San Diego, CA). Results are expressed as the means of two […] experiments

Hep3B = assay: CellTiter-Glo luminescent cell viability assay; format: cell-based; conditions: 120 h incubation, read-out: Anti-proliferative activity IC50 Hep3B
Text: as §3, §4, §5, §6

MHCC97-L = assay: CellTiter-Glo luminescent cell viability assay; format: cell-based; conditions: 120 h incubation, read-out: Anti-proliferative activity IC50 MHCC97-L
Text: as §3, §4, §5, §6

QGY-7703 = assay: CellTiter-Glo luminescent cell viability assay; format: cell-based; conditions: 120 h incubation, read-out: Anti-proliferative activity IC50 QGY-7703
Text: as §3, §4, §5, §6

SMMC-7721 = assay: CellTiter-Glo luminescent cell viability assay; format: cell-based; conditions: 120 h incubation, read-out: Anti-proliferative activity IC50 SMMC-7721
Text: as §3, §4, §5, §6

SNU368 = assay: CellTiter-Glo luminescent cell viability assay; format: cell-based; conditions: 120 h incubation, read-out: Anti-proliferative activity IC50 SNU368
Text: as §3, §4, §5, §6

Sequence of PDGFRβ (P09619 33-1106): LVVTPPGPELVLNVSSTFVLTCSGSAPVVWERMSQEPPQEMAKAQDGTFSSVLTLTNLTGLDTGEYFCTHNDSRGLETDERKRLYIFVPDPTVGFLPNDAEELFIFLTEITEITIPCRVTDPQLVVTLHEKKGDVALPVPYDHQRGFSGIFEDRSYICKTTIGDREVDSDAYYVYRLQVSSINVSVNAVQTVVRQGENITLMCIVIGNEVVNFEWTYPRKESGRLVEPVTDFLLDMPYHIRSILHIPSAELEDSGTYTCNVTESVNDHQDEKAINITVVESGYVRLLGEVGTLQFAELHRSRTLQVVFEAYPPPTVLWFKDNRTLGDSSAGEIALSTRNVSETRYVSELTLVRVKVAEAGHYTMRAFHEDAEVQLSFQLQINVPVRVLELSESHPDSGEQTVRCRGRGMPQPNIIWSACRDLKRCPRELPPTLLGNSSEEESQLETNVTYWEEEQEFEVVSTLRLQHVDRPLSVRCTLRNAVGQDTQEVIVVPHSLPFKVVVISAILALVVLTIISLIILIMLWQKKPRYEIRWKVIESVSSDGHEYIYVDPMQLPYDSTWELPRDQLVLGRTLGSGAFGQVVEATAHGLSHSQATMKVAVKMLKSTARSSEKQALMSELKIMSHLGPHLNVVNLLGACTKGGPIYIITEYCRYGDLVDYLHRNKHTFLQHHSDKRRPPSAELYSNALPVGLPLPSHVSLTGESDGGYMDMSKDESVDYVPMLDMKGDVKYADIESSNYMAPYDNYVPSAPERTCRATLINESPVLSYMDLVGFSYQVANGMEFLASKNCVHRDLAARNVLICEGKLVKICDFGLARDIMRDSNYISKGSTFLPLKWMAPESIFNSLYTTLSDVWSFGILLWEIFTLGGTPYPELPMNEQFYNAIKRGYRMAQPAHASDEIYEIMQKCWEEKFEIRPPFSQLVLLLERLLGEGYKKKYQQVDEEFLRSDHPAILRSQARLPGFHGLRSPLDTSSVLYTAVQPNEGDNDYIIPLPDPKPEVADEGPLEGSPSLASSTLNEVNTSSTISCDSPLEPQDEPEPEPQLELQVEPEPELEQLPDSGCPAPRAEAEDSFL
Sequence of PDGFRα (P16234 24-1089): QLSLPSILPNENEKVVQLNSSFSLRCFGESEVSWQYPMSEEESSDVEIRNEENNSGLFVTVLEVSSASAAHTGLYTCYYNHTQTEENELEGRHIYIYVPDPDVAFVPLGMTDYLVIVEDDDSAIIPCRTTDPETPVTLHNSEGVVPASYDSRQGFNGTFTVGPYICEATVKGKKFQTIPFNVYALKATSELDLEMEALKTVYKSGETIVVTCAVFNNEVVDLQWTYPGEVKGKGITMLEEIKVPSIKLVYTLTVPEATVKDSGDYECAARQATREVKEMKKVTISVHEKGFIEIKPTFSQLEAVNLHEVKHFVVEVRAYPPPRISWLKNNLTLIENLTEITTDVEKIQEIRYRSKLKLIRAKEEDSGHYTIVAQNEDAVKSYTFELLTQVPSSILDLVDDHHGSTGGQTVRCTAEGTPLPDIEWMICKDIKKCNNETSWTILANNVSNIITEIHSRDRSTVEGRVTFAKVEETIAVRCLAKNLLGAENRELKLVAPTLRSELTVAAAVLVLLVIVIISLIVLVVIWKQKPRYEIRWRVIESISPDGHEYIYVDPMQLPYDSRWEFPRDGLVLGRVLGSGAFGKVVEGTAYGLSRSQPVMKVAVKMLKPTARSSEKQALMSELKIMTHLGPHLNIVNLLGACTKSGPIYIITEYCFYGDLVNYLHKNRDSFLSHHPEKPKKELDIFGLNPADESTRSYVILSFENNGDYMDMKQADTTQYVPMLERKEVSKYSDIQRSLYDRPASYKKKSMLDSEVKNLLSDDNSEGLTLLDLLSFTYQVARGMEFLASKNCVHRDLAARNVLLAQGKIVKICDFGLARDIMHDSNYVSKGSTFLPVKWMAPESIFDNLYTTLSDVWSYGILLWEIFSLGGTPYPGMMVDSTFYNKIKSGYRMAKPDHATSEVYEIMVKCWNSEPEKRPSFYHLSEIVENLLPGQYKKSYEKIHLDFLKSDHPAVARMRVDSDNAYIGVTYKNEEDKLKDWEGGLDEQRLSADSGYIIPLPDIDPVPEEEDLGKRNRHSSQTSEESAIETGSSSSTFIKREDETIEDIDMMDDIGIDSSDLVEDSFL

Compound | Inhibition effect (%) PDGFRα (PDGFRα) [%] | Inhibition effect (%) PDGFRβ (PDGFRβ) [%] | pIC50 (BEL7404) | pIC50 (Hep3B) | pIC50 (SMMC-7721) | pIC50 (SNU368) | pIC50 (MHCC97-L) | pIC50 (QGY-7703)
Cc1ccc(NC(=O)c2ccncc2)cc1Oc1nccc(-c2ccccc2)n1 [B12] | 25.66 | 20.65 | 4.87 | 4.75 | 5.06 | 4.74 | 4.36 | 4.56
CC(=O)Nc1ccc(C)c(Oc2nccc(-c3cccc4ccccc34)n2)c1 [C1] | 33.27 | 1.32 | 4.44 | 4.49 | 4.68 | 4.37 | 3.96 | 4.04
CCC(=O)Nc1ccc(C)c(Oc2nccc(-c3cccc4ccccc34)n2)c1 [C2] | 33.78 | 2.07 | 4.32 | 4.44 | 4.53 | 4.25 | 3.96 | 3.92
Cc1ccc(NC(=O)c2ccco2)cc1Oc1nccc(-c2cccc3ccccc23)n1 [C3] | 46.46 | 11.61 | 4.40 | 4.47 | 4.57 | 4.42 | 4.04 | 4.15
Cc1ccc(NC(=O)c2ccoc2)cc1Oc1nccc(-c2cccc3ccccc23)n1 [C4] | 13.73 | 2.83 | 5.06 | 4.64 | 4.92 | 4.80 | 4.02 | 4.83
Cc1ccc(NC(=O)c2cccs2)cc1Oc1nccc(-c2cccc3ccccc23)n1 [C5] | 16.27 | 5.08 | 4.68 | 4.77 | 4.77 | 4.55 | 4.55 | 4.45
Cc1ccc(NC(=O)c2ccc(Cl)cc2)cc1Oc1nccc(-c2cccc3ccccc23)n1 [C6] | 24.14 | -0.94 | 5.17 | 4.71 | 4.84 | 4.76 | < 3.70 | 4.72
Cc1ccc(NC(=O)c2ccccc2)cc1Oc1nccc(-c2ccco2)n1 [D1] | 13.74 | 28.93 | 4.31 | 4.94 | 5.82 | 4.43 | 5.80 | 5.60
Cc1ccc(NC(=O)Cc2ccccc2)cc1Oc1nccc(-c2ccco2)n1 [D2] | 36.82 | 46.75 | 4.48 | 4.55 | 4.67 | 4.36 | 4.58 | 4.37
COc1ccc(C(=O)Nc2ccc(C)c(Oc3nccc(-c4ccco4)n3)c2)cc1 [D3] | 22.61 | 37.72 | 4.75 | 5.01 | 5.10 | 4.65 | 5.07 | 4.80
Cc1cccc(C(=O)Nc2ccc(C)c(Oc3nccc(-c4ccco4)n3)c2)c1 [D4] | 45.70 | 46.00 | 5.35 | 5.22 | 5.43 | 4.63 | 5.47 | 5.12
Cc1ccc(NC(=O)c2cccc(Cl)c2)cc1Oc1nccc(-c2ccco2)n1 [D5] | 51.79 | 43.49 | 4.91 | 4.95 | 4.91 | 4.62 | 4.83 | 4.65

More lines, main results first:

Inhibition effect (%) PDGFRα (PDGFRα) [%] | Inhibition effect (%) PDGFRβ (PDGFRβ) [%] | pIC50 (BEL7404) | pIC50 (Hep3B) | pIC50 (SMMC-7721) | pIC50 (SNU368) | Compound | pIC50 (MHCC97-L) | pIC50 (QGY-7703)
33.02 | 37.47 | 4.96 | 5.14 | 5.09 | 4.90 | Cc1ccc(NC(=O)c2ccc(Cl)cc2)cc1Oc1nccc(-c2ccco2)n1 [D6] | 4.61 | 4.59
1.56 | 1.82 | 5.00 | 4.06 | 6.52 | 5.07 | CC(=O)Nc1ccc(C)c(Oc2nccc(-c3cc4ccccc4o3)n2)c1 [E1] | 5.24 | 6.52
19.06 | 10.10 | 5.09 | 4.13 | 6.70 | 4.88 | CCC(=O)Nc1ccc(C)c(Oc2nccc(-c3cc4ccccc4o3)n2)c1 [E2] | 5.26 | 6.40
-2.00 | 3.83 | 5.92 | 3.90 | 6.15 | 5.89 | Cc1ccc(NC(=O)c2ccco2)cc1Oc1nccc(-c2cc3ccccc3o2)n1 [E3] | 5.02 | 6.15
-1.24 | -0.44 | 4.42 | 4.93 | 4.56 | 4.50 | Cc1ccc(NC(=O)CN2CCN(C)CC2)cc1Oc1nccc(-c2cc3ccccc3o2)n1 [E6] | 4.78 | 4.53
18.56 | 19.39 | 5.23 | 5.05 | 5.34 | 4.83 | Cc1ccc(NC(=O)CN2CCOCC2)cc1Oc1nccc(-c2cc3ccccc3o2)n1 [E7] | 4.23 | 4.99
26.16 | 14.62 | 5.55 | 5.42 | 5.60 | 5.20 | Cc1ccc(NC(=O)CO)cc1Oc1nccc(-c2cc3ccccc3o2)n1 [E8] | 4.87 | 5.48
6.37 | 2.32 | 4.43 | 4.51 | 4.46 | 4.53 | CC(=O)Nc1ccc(C)c(Oc2nccc(-c3cc4ccccc4n3C)n2)c1 [F1] | 4.32 | 3.71
12.21 | -4.46 | 4.72 | 4.47 | 4.55 | 4.54 | CCC(=O)Nc1ccc(C)c(Oc2nccc(-c3cc4ccccc4n3C)n2)c1 [F2] | 4.50 | 4.28
24.14 | 25.67 | 4.81 | 4.38 | 4.74 | 4.58 | Cc1ccc(NC(=O)c2ccco2)cc1Oc1nccc(-c2cc3ccccc3n2C)n1 [F3] | < 3.70 | 4.01
